According to US20250031733A1, “Mint Flavor Compositions” (The Procter & Gamble Company, priority 2020, published 2025):

Experiments:
[1] = Expert sensory testing of racemic menthol vs (−)-menthol in toothpaste (CREST Cavity) with standard spearmint flavor; format: in vivo
Description: In separate, unpublished internal experiments, perceptual experiences of racemic menthol are quantified via expert sensory testing. The use of a standard spearmint flavor (minimizing extra menthol contribution) compared racemic menthol to (−)-menthol in a toothpaste formulation (CREST Cavity). There are several sensory observations taken from these experiments. […] These aromatic notes appear during brushing and disappear after 5-10 minutes post expectoration and are more pronounced as concentrations increase.

[2] = Comparison of cooling attributes of (−)-menthol and racemic menthol in toothpaste (Crest Cavity formulation); format: in vivo
Description: The following data helps support the use of racemic menthol to reduce costs of mint flavor compositions herein described. From internal unpublished research, Table B compares replacing (−)-menthol with a racemic menthol in a 1:1 in a toothpaste formulation. Such a direct replacement is not preferred given the reduced cooling profile and olfactory differences; however, a portion of L-menthol is preferably replaced by racemic-menthol to gain cost efficiency while minimizing impact to the overall mint flavor profiles.
This value represents the concentration of a coolant where 50% of its maximal cooling is observed.

With CC1CCC(C(C)C)C(O)C1 (racemic) [Racemic Menthol] the “less potent than (−)-menthol for cooling” value [1] was 25-30%, the “Potency compared to L-Menthol” value [2] was ~0.65-0.7x and the “Time Point at Maximum Cooling” value [2] was ~1 min. For the same molecule, the “Maximum Cooling (0-60 scale)” value ([2]; 60 = greatest amount of cooling, 0 = least) was 35, the “EC 50” value ([2]; concentration of coolant where 50% of maximal cooling is observed) was 1,250 to 1,500 parts per million and the “Maximum Longevity” value ([2]; cooling) was “Up to 20 minutes”.
